# Reference: patent US7531320B2, “Modulation of β-catenin/TCF-activated transcription” (priority 2003, dated 2009)
# Columns and labels:
# [1] = system: β-catenin/TCF reporter gene construct; experiment: β-catenin/TCF luciferase reporter assay in SW480 cells; type: cell-based, human
# Protocol: FIG. 1. COMPOUND 1 inhibits β-catenin/TCF transcription. • A(i) and A(ii). Structures of COMPOUND 1, COMPOUND 2, COMPOUND 3, COMPOUND 4, and COMPOUND 5. • B(i) and B(ii). […] SW480 cells (10^5), (FIG. 1B(i)), were transfected with β-catenin/TCF luciferase construct. Cells were treated with COMPOUND 1 (1-64 μM). 24 hours post treatment lysates were prepared and subjected to dual luciferase assay. The data is represented in different form in FIG. 1B(ii). • C. COMPOUND 1 has no effect on NFAT reporter construct. Stably transfected Jurkat cells, right panel, with an NFAT reporter construct, were stimulated with PMA (10 ng/ml)/lonomycin (1 μg/ml), and treated with COMPOUND 1 (0.781-50 μM). 24 hours post treatment lysates were prepared and subjected to dual luciferase assay. All experiments were performed in duplicate and the values plotted as means +/−standard deviation. • D. CBP is the molecular target of COMPOUND 1. Nuclear extracts of SW480 cells were incubated with streptavidin-agarose beads coated with COMPOUND 2 (25 μM). Beads were washed 3 times and the eluted were subjected to gel electrophoresis and immunoblotting, with anti-CBP antibodies. […] The lysates were desalted using G-25 1 cc columns (Pharmacia) to remove the unbound ^14C-labeled-COMPOUND 1, and ^14C-labeled-COMPOUND 1 incorporation was measured. […]
# cyclin D1 = experiment: Western blot of Cyclin D1 in SW480 whole cell lysates; type: cell-based, human; conditions: SW480 cells, 25 μM, beginning at 4 hours, increasing at 24 hours
# Protocol: FIG. 5. COMPOUND 1 inhibits the expression of cyclin D1. • A. Cyclin D1 levels are decreased with COMPOUND 1 treatment. Western blot analysis was performed on 25 μg of SW480 whole cell lysates treated for 4, 8, or 24 hours with either 25 μM of COMPOUND 1 or control (0.5% DMSO). Immunoblotting was performed using anti-Cyclin D1 antibodies (Santa Cruz Biotechnology Inc.). • B. In vivo occupancy of cyclin D1 and c-myc promoters by CBP and p300. […] ChIP assays were performed on promoter of c-myc from SW480 cells which was treated for 8 hours with COMPOUND 1 (25 μM) or control (0.5% DMSO). CBP (AC-26, a generous gift from Dr. David Livingston, Harvard University, Boston, Mass.) or p300 (C-20, Santa Cruz Biotechnology Inc.) specific antibodies were used to evaluate the promoter occupancy by CBP or p300 in presence of COMPOUND 1 or control (DMSO) treatment.
# Immune complexes, from above, were separated on SDS-PAGE followed by transfer to immobilon-P membranes (PVDF) from (Millipore, Bedford, Mass.). […] Immunoblots were analyzed using an ECL detection kit (Amersham Pharmacia Biotech).
# The β-actin gene was used to normalize the data. The ΔCycle of Threshold (CT) values were determined by subtracting the average values of each set from the corresponding average values obtained for the β-actin gene. […] Cyclin D1 protein levels in cells were also evaluated. […]
# NFAT reporter construct = experiment: NFAT reporter assay in stably transfected Jurkat cells; type: cell-based
# Protocol: FIG. 1. COMPOUND 1 inhibits β-catenin/TCF transcription. • A(i) and A(ii). Structures of COMPOUND 1, COMPOUND 2, COMPOUND 3, COMPOUND 4, and COMPOUND 5. • B(i) and B(ii). […] SW480 cells (10^5), (FIG. 1B(i)), were transfected with β-catenin/TCF luciferase construct. Cells were treated with COMPOUND 1 (1-64 μM). 24 hours post treatment lysates were prepared and subjected to dual luciferase assay. The data is represented in different form in FIG. 1B(ii). • C. COMPOUND 1 has no effect on NFAT reporter construct. Stably transfected Jurkat cells, right panel, with an NFAT reporter construct, were stimulated with PMA (10 ng/ml)/lonomycin (1 μg/ml), and treated with COMPOUND 1 (0.781-50 μM). 24 hours post treatment lysates were prepared and subjected to dual luciferase assay. All experiments were performed in duplicate and the values plotted as means +/−standard deviation. • D. CBP is the molecular target of COMPOUND 1. Nuclear extracts of SW480 cells were incubated with streptavidin-agarose beads coated with COMPOUND 2 (25 μM). Beads were washed 3 times and the eluted were subjected to gel electrophoresis and immunoblotting, with anti-CBP antibodies. […] The lysates were desalted using G-25 1 cc columns (Pharmacia) to remove the unbound ^14C-labeled-COMPOUND 1, and ^14C-labeled-COMPOUND 1 incorporation was measured.
smiles,measurement,setting,value
O=C1C(Cc2ccc(O)cc2)N2C(=O)CCN(C(=O)NCc3ccccc3)C2CN1Cc1cccc2ccccc12 (centres unmarked) [COMPOUND 1],Change of IC50 of COMPOUND 1 on transfection of increasing concentration of CBP,"[1]; SW480 cells cotransfected with CBP (not β-catenin), dose-dependent",increased the IC50
same,IC50,"[1]; SW480 cells, 1-64 μM, 24 hours post treatment, dual luciferase assay",5 µM
same,Level of Cyclin D1 protein,cyclin D1,clear reduction
same,Effect on NFAT reporter construct,"NFAT reporter construct; Jurkat cells, PMA/Ionomycin stimulated, 0.781-50 μM, 24 hours",no effect
same,Selectivity versus other CBP-dependent reporters,"NFAT reporter construct; including NFAT, CRE and AP-1 (CRE, AP-1 data not shown)",very good selectivity
